# Laboratory results from patent publication US6737383B1, “Herbicidal oxadiazolidines” (priority 1999, dated 2004).
# Tests used:
# crabgrass = experiment: Test B pre/postemergence crabgrass; assay type: in vivo, Digitaria sanguinalis
# How it was run: (§1)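 Test chemicals in a non-phytotoxic solvent mixture with surfactant were sprayed preemergence onto planted seeds and postemergence onto plants 2 to 18 cm tall (1- to 4-leaf stage). After twelve to sixteen days in a greenhouse, injury was visually rated against untreated controls from 0 (no effect) to 10 (complete control).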
# wheat = experiment: Test B pre/postemergence wheat; assay type: in vivo, Triticum aestivum
# How it was run: as §1
# corn = experiment: Test B pre/postemergence corn; assay type: in vivo, Zea mays
# How it was run: as §1
# surinam grass = experiment: Test B pre/postemergence surinam grass; assay type: in vivo, Brachiaria decumbens
# How it was run: as §1
# rice = experiment: Test B flood test rice; assay type: in vivo, Oryza sativa
# How it was run: (§2)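 Each value is a visual injury score relative to controls, with 10 meaning complete control and 0 no effect. Evaluation took place twelve to sixteen days after the 2-leaf-stage plants were treated and kept in the greenhouse.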
# wild oat = experiment: Test B pre/postemergence wild oat; assay type: in vivo, Avena fatua
# How it was run: as §1
# soybean = experiment: Test B pre/postemergence soybean; assay type: in vivo, Glycine max
# How it was run: as §1
# morningglory = experiment: Test B pre/postemergence morningglory; assay type: in vivo, Ipomoea hederacea
# How it was run: as §1
# blackgrass = experiment: Test B pre/postemergence blackgrass; assay type: in vivo, Alopecurus myosuroides
# How it was run: as §1
# purple nutsedge = experiment: Test B pre/postemergence purple nutsedge; assay type: in vivo, Cyperus rotundus
# How it was run: as §1
# velvetleaf = experiment: Test B pre/postemergence velvetleaf; assay type: in vivo, Abutilon theophrasti
# How it was run: as §1
# cocklebur = experiment: Test B pre/postemergence cocklebur; assay type: in vivo, Xanthium strumarium
# How it was run: as §1
# pigweed = experiment: Test B pre/postemergence pigweed; assay type: in vivo, Amaranthus retroflexus
# How it was run: as §1
# bamyardgrass = experiment: Test B flood test barnyardgrass; assay type: in vivo, Echinochloa crus-galli; conditions: for Plant response rating, Barnyardgrass: scale 0 to 10, 0 is no effect, 10 is complete control; for Barnyardgrass plant response rating: scale of 0 to 10 where 0 is no effect and 10 is complete control
# How it was run: as §2
# giant foxtail = experiment: Test B pre/postemergence giant foxtail; assay type: in vivo, Setaria faberii
# How it was run: as §1
# rape = experiment: Test B pre/postemergence rape; assay type: in vivo, Brassica napus
# How it was run: as §1
# sugar beet = experiment: Test B pre/postemergence sugar beet; assay type: in vivo, Beta vulgaris
# How it was run: as §1
# smallflower flatsedge = experiment: Test B flood test smallflower flatsedge; assay type: in vivo, Cyperus difformis
# How it was run: as §2
# duck salad = experiment: Test B flood test duck salad; assay type: in vivo, Heteranthera limosa; conditions: for Plant response rating, Ducksalad: scale 0 to 10, 0 is no effect, 10 is complete control; for Ducksalad plant response rating: scale of 0 to 10 where 0 is no effect and 10 is complete control
# How it was run: as §2
# [1] = Postemergence, Rate 125 g/ha, scale 0 to 10, 0 is no effect, 10 is complete control
# [2] = Postemergence, Rate 250 g/ha, scale 0 to 10, 0 is no effect, 10 is complete control
# [3] = Postemergence, Rate 500 g/ha, scale of 0 to 10 where 0 is no effect and 10 is complete control
# [4] = Preemergence, Rate 62 g/ha, scale 0 to 10 (0 no effect, 10 complete control)
# [5] = Preemergence, Rate 125 g/ha, scale of 0 to 10 where 0 is no effect and 10 is complete control
# [6] = Preemergence, Rate 250 g/ha, scale 0 to 10, 0 is no effect, 10 is complete control
# [7] = Preemergence, Rate 500 g/ha, scale 0 to 10, 0 is no effect, 10 is complete control
# [8] = Rate 62 g/ha, Postemergence, scale of 0 to 10 where 0 is no effect and 10 is complete control
# [9] = Preemergence, Rate 250 g/ha, scale of 0 to 10 where 0 is no effect and 10 is complete control
# [10] = Postemergence section (flood test species), Rate 500 g/ha, scale of 0 to 10 where 0 is no effect and 10 is complete control
# [11] = flood test species, listed under Postemergence, Rate 250 g/ha, scale 0 to 10, 0 is no effect, 10 is complete control
# [12] = Postemergence (flood test), Rate 125 g/ha
# [13] = Postemergence section (flood test species), Rate 500 g/ha
# [14] = Rate 62 g/ha, Postemergence (flood test species)
# [15] = flood test species, listed under Postemergence, Rate 250 g/ha
smiles,measurement,setting,value
CC(C)N(C(=O)n1oc(=O)n(CCBr)c1=O)c1ccccc1 [Compound 415],"Plant response rating, Crabgrass",crabgrass; [1],1
same,"Plant response rating, Crabgrass",crabgrass; [2],8
same,Crabgrass plant response rating,crabgrass; [3],9
same,"Plant response rating, Crabgrass",crabgrass; [4],8
same,"Plant response rating, Crabgrass",crabgrass; [5],8
same,Crabgrass plant response rating,crabgrass; [6],9
same,Crabgrass plant response rating,crabgrass; [7],10
same,Crabgrass plant response rating,crabgrass; [8],0
same,Wheat plant response rating,wheat; [3],3
same,"Plant response rating, Wheat",wheat; [4],0
same,"Plant response rating, Wheat",wheat; [5],0
same,Wheat plant response rating,wheat; [6],2
same,Wheat plant response rating,wheat; [7],3
same,"Plant response rating, Corn",corn; [1],0
same,"Plant response rating, Corn",corn; [2],1
same,Corn plant response rating,corn; [3],2
same,"Plant response rating, Corn",corn; [4],0
same,"Plant response rating, Corn",corn; [5],2
same,Corn plant response rating,corn; [6],3
same,Corn plant response rating,corn; [7],4
same,Corn plant response rating,corn; [8],0
same,"Plant response rating, B. signalgrass",surinam grass; [1],0
same,"Plant response rating, B. signalgrass",surinam grass; [2],2
same,B. signalgrass plant response rating,surinam grass; [3],6
same,"Plant response rating, B. signalgrass",surinam grass; [4],2
same,"Plant response rating, B. signalgrass",surinam grass; [5],3
same,B. signalgrass plant response rating,surinam grass; [9],6
same,B. signalgrass plant response rating,"surinam grass; Preemergence, Rate 500 g/ha, scale of 0 to 10 where 0 is no effect and 10 is complete control",6
same,B. signalgrass plant response rating,surinam grass; [8],0
same,Rice plant response rating,rice; [10],0
same,"Plant response rating, Rice",rice; [11],0
same,Wild oats plant response rating,wild oat; [3],3
same,"Plant response rating, Wild oats",wild oat; [4],0
same,"Plant response rating, Wild oats",wild oat; [5],3
same,Wild oats plant response rating,wild oat; [6],6
same,Wild oats plant response rating,wild oat; [7],6
same,"Plant response rating, Soybean",soybean; [2],4
same,Soybean plant response rating,soybean; [3],7
same,"Plant response rating, Soybean",soybean; [4],0
same,"Plant response rating, Soybean",soybean; [5],0
same,Soybean plant response rating,soybean; [6],0
same,Soybean plant response rating,soybean; [7],0
same,"Plant response rating, Morningglory",morningglory; [2],6
same,Morningglory plant response rating,morningglory; [3],7
same,"Plant response rating, Morningglory",morningglory; [4],0
same,"Plant response rating, Morningglory",morningglory; [5],0
same,Morningglory plant response rating,morningglory; [6],0
same,Morningglory plant response rating,morningglory; [7],0
same,"Plant response rating, Blackgrass",blackgrass; [1],3
same,"Plant response rating, Blackgrass",blackgrass; [2],8
same,Blackgrass plant response rating,blackgrass; [3],9
same,"Plant response rating, Blackgrass",blackgrass; [4],5
same,"Plant response rating, Blackgrass",blackgrass; [5],5
same,Blackgrass plant response rating,blackgrass; [9],9
same,Blackgrass plant response rating,blackgrass; [7],9
same,Blackgrass plant response rating,blackgrass; [8],0
same,"Plant response rating, Nutsedge",purple nutsedge; [2],0
same,Nutsedge plant response rating,purple nutsedge; [3],0
same,"Plant response rating, Nutsedge",purple nutsedge; [4],0
same,"Plant response rating, Nutsedge",purple nutsedge; [5],0
same,Nutsedge plant response rating,purple nutsedge; [6],0
same,Nutsedge plant response rating,purple nutsedge; [7],0
same,"Plant response rating, Velvetleaf",velvetleaf; [2],2
same,Velvetleaf plant response rating,velvetleaf; [3],2
same,"Plant response rating, Velvetleaf",velvetleaf; [4],0
same,"Plant response rating, Velvetleaf",velvetleaf; [5],2
same,Velvetleaf plant response rating,velvetleaf; [6],6
same,Velvetleaf plant response rating,velvetleaf; [7],7
same,"Plant response rating, Cocklebur",cocklebur; [1],0
same,"Plant response rating, Cocklebur",cocklebur; [2],1
same,Cocklebur plant response rating,cocklebur; [3],4
same,"Plant response rating, Cocklebur",cocklebur; [4],0
same,"Plant response rating, Cocklebur",cocklebur; [5],0
same,Cocklebur plant response rating,cocklebur; [6],0
same,Cocklebur plant response rating,cocklebur; [7],0
same,Cocklebur plant response rating,cocklebur; [8],0
same,"Plant response rating, Redroot pigweed",pigweed; [2],0
same,Redroot pigweed plant response rating,pigweed; [3],3
same,"Plant response rating, Redroot pigweed",pigweed; [4],0
same,"Plant response rating, Redroot pigweed",pigweed; [5],0
same,Redroot pigweed plant response rating,pigweed; [6],6
same,Redroot pigweed plant response rating,pigweed; [7],10
same,"Plant response rating, Barnyardgrass",bamyardgrass; [12],0
same,Barnyardgrass plant response rating,bamyardgrass; [13],0
same,Barnyardgrass plant response rating,bamyardgrass; [14],0
same,"Plant response rating, Barnyardgrass",bamyardgrass; [15],0
same,"Plant response rating, Giant foxtail",giant foxtail; [1],8
same,"Plant response rating, Giant foxtail",giant foxtail; [2],9
same,Giant foxtail plant response rating,giant foxtail; [3],9
same,"Plant response rating, Giant foxtail",giant foxtail; [4],9
same,"Plant response rating, Giant foxtail",giant foxtail; [5],10
same,Giant foxtail plant response rating,giant foxtail; [6],10
same,Giant foxtail plant response rating,giant foxtail; [7],10
same,Giant foxtail plant response rating,giant foxtail; [8],5
same,"Plant response rating, Rape",rape; [2],0
same,Rape plant response rating,rape; [3],1
same,"Plant response rating, Rape",rape; [4],2
same,"Plant response rating, Rape",rape; [5],6
same,Rape plant response rating,rape; [6],10
same,Rape plant response rating,rape; [7],10
same,"Plant response rating, Sugarbeets",sugar beet; [2],0
same,Sugarbeets plant response rating,sugar beet; [3],0
same,"Plant response rating, Sugarbeets",sugar beet; [4],0
same,"Plant response rating, Sugarbeets",sugar beet; [5],0
same,Sugarbeets plant response rating,sugar beet; [6],6
same,Sugarbeets plant response rating,sugar beet; [7],8
same,S. Flatsedge plant response rating,smallflower flatsedge; [10],3
same,"Plant response rating, S. Flatsedge",smallflower flatsedge; [11],3
same,"Plant response rating, Ducksalad",duck salad; [12],0
same,Ducksalad plant response rating,duck salad; [13],0
same,Ducksalad plant response rating,duck salad; [14],0
same,"Plant response rating, Ducksalad",duck salad; [15],0
